Experimental data: paper PMC9833666, “Designing and identifying β-hairpin peptide macrocycles with antibiotic potential” (Science Advances, 2023)
Where two headings read alike, the source gives them in different places. Bridge positions count the residues as written; N and C are the ends. Ends that are not written are not given here. Peptide text beside a SMILES is read from it.

Experiments:
[1] = tested on: Single-donor human red blood cells; assay: Hemolysis assay; assay type: cell-based
Experimental: Single-donor human red blood cells (Innovative Research, no. IWB3ALS) were washed in PBS and adjusted to a concentration of 1 × 10^9 cells/ml. Each peptide was added individually to 200 μl of cells at a concentration of either 300 μg/ml (SySA library) or 128 μg/ml (SySA-5 optimization library) in a 96-well polypropylene plate (Corning, 3879). PBS alone and 1% Triton X-100 were used for background normalization and 100% hemolysis, respectively. Each reaction was set up in triplicate. Plates were incubated for 3 hours at 37°C. Following incubation, samples were centrifuged at 800g for 20 min, and 100 μl of supernatant was transferred to a flat-bottom 96-well plate (Genesse, 25-104). Percent hemolysis for each sample was determined by normalizing the absorbance at 540 nm for each sample to the average background and dividing by the average absorbance for 1% Triton X-100 (100% hemolysis). Error bars represent 1 SD of triplicate samples.

Escherichia coli W3110 = assay type: cell-based; settings: for Ec W3110 MIC MH: E. coli W3110, MH medium; for Ec W3110 MIC RPMI: E. coli W3110, RPMI medium

Row | Compound | hemolysis [1] | Ec W3110 MIC MH (Escherichia coli W3110) | Ec W3110 MIC RPMI (Escherichia coli W3110) | further results
1 | CC[C@H](C)[C@@H]1NC(=O)[C@H](CC(N)=O)NC(=O)[C@H](C(C)C)NC(=O)[C@H](CCCNC(=N)N)NC(=O)[C@H](C(C)C)NC(=O)[C@H](CCCNC(=N)N)NC(=O)[C@@H](N)CSSC[C@@H](C(=O)O)NC(=O)[C@H](CCC(N)=O)NC(=O)[C@H](CC(C)C)NC(=O)[C@H](CCC(N)=O)NC(=O)[C@H](CC(C)C)NC(=O)[C@H](CCCNC(=N)N)NC(=O)[C@H](CC(C)C)NC(=O)[C@H]([C@@H](C)O)NC(=O)[C@H](CCCNC(=N)N)NC(=O)[C@H](CO)NC(=O)[C@H](CCCNC(=N)N)NC(=O)[C@H](CC(N)=O)NC(=O)[C@H](CC(=O)O)NC1=O [SyPA-7] (H-CRVRVNIDNRSRTLRLQLQC-OH; disulfide 1-20) |  |  |  | %Hemo [1]: 1.48%; W3110 MIC (Escherichia coli W3110; W3110): >128 µg/mL
2 | CRVRININNRSRTLKLELEC (disulfide 1-20 (inferred)) [SySA-68] | 0.47% | > 256 µg/mL | > 256 µg/mL | 
3 | CRIKVDINNRSGRVKLQVQC (disulfide 1-20 (inferred)) [SySA-20] | 0.42% | > 256 µg/mL | > 256 µg/mL | 
4 | CRIRININNRRGRLKLQVEC (disulfide 1-20 (inferred)) [SySA-76] | 0.27% | > 256 µg/mL | > 256 µg/mL | 
5 | CRIRVNINNRRRTLRLEVEC (disulfide 1-20 (inferred)) [SySA-35] | 0.12% | > 256 µg/mL | > 256 µg/mL | 
6 | CRVRVNINNGSGRVKLELEC (disulfide 1-20 (inferred)) [SySA-19] | 0.33% | > 256 µg/mL | > 256 µg/mL | 
7 | CC[C@H](C)[C@@H]1NC(=O)[C@H](CCCNC(=N)N)NC(=O)[C@H](CC(C)C)NC(=O)[C@H](CCCNC(=N)N)NC(=O)CNC(=O)[C@H](CCCNC(=N)N)NC(=O)[C@H](CCCNC(=N)N)NC(=O)[C@H](CC(=O)O)NC(=O)[C@H](CC(=O)O)NC(=O)[C@H](CC(C)C)NC(=O)[C@H](CCCNC(=N)N)NC(=O)[C@H](C(C)C)NC(=O)[C@H](CCCNC(=N)N)NC(=O)[C@H](CC(C)C)NC(=O)[C@@H](N)CSSC[C@@H](C(=O)O)NC(=O)[C@H](C(C)C)NC(=O)[C@H](CCC(N)=O)NC(=O)[C@H](CC(C)C)NC(=O)[C@H](CO)NC1=O [SyPA-9] (H-CLRVRLDDRRGRLRISLQVC-OH; disulfide 1-20) |  |  |  | %Hemo [1]: 11.36%; W3110 MIC (Escherichia coli W3110; W3110): 64 µg/mL
8 | CLRVRVDNGGSRLKITLEVC (disulfide 1-20 (inferred)) [SySA-75] | 2.18% | > 256 µg/mL | > 256 µg/mL | 
9 | CC[C@H](C)[C@@H]1NC(=O)[C@H](CCCNC(=N)N)NC(=O)[C@H](C(C)C)NC(=O)[C@@H](N)CSSC[C@@H](C(=O)O)NC(=O)[C@H](C(C)C)NC(=O)[C@H](CCC(N)=O)NC(=O)[C@H](C(C)C)NC(=O)[C@H](CO)NC(=O)[C@H](C(C)C)NC(=O)[C@H](CCCNC(=N)N)NC(=O)[C@H](C(C)C)NC(=O)[C@H](CCCNC(=N)N)NC(=O)[C@H](CCCNC(=N)N)NC(=O)[C@H](CCCNC(=N)N)NC(=O)[C@H](CCCNC(=N)N)NC(=O)[C@H](CC(N)=O)NC(=O)[C@H](CC(N)=O)NC(=O)[C@H](CC(C)C)NC(=O)[C@H](CCCNC(=N)N)NC1=O [SyPA-6] (H-CVRIRLNNRRRRVRVSVQVC-OH; disulfide 1-20) |  |  |  | %Hemo ([1]; SyPA peptides, human red blood cells, 3 h 37°C, relative to 1% Triton X-100, peptide concentration not stated for SyPA, n=3): 0.90%; W3110 MIC (Escherichia coli W3110; SyPA peptides, MH, replicate 1): 32 µg/mL; W3110 MIC (Escherichia coli W3110; SyPA peptides, MH, replicate 2): 32 µg/mL; W3110 MIC (Escherichia coli W3110; SyPA peptides, MH, replicate 3): 32 µg/mL
10 | CLRVRVNDRGSGVKITVEVC (disulfide 1-20 (inferred)) [SySA-39] | 0.28% | > 256 µg/mL | > 256 µg/mL | 
11 | CRIRINVNNGSGRVRLELEC (disulfide 1-20 (inferred)) [SySA-77] | 0.32% | > 256 µg/mL | > 256 µg/mL | 
12 | CLTVRVDNRGSRLKVTVEVC (disulfide 1-20 (inferred)) [SySA-55] | -0.10% | > 256 µg/mL | > 256 µg/mL | 
13 | CLTVRLDNRGSGLRITVEVC (disulfide 1-20 (inferred)) [SySA-44] | -0.0761% | > 256 µg/mL | > 256 µg/mL | 
14 | CLTVRLNNRGGGVKISVEVC (disulfide 1-20 (inferred)) [SySA-59] | 0.32% | > 256 µg/mL | > 256 µg/mL | 
15 | CVTVRVNNRGSRLKVSVEVC (disulfide 1-20 (inferred)) [SySA-18] | 0.60% | > 256 µg/mL | > 256 µg/mL | 
16 | CVRVRVDNRGSRVKVTVQVC (disulfide 1-20 (inferred)) [SySA-12] | 0.30% | > 256 µg/mL | > 256 µg/mL | 
17 | CVTIRLNDGGSGLKISLQVC (disulfide 1-20 (inferred)) [SySA-23] | -0.03% | > 256 µg/mL | > 256 µg/mL | 
18 | CRVKINVDNRSGRVKLELQC (disulfide 1-20 (inferred)) [SySA-69] | 0.72% | > 256 µg/mL | > 256 µg/mL | 
19 | NC[C@H]1O[C@H](O[C@H]2[C@H](O)[C@@H](O[C@H]3O[C@H](CO)[C@@H](O)[C@H](N)[C@H]3O)[C@H](N)C[C@@H]2N)[C@H](O)[C@@H](O)[C@@H]1O [kanamycin, reference compound] |  | 1 µg/mL |  | Hemolysis (%) ([1]; human red blood cells 1x10^9 cells/ml, peptide 300 μg/ml, 3 h 37°C, relative to 1% Triton X-100, A540, ± 1 SD, n=3): 0.1 ± 0.03%; hemolysis ([1]; human red blood cells, st dev in separate column): 0.0147%; W3110 MIC MHII (Escherichia coli W3110; E. coli W3110, MHII medium): 2 µg/mL; fold increase in MHII MIC relative to standard MH (Escherichia coli W3110; cation-adjusted MH (MHII) vs standard MH): twofold

Row | Compound | hemolysis [1] | Ec W3110 MIC MH (Escherichia coli W3110) | Ec W3110 MIC RPMI (Escherichia coli W3110) | further results
20 | CLRVRVNNRRSGVRVTLEVC (disulfide 1-20 (inferred)) [SySA-67] | 0.70% | > 256 µg/mL | > 256 µg/mL | 
21 | CLRIRLNNRGRGVKVSVEVC (disulfide 1-20 (inferred)) [SySA-46] | 0.47% | > 256 µg/mL | > 256 µg/mL | 
22 | CRVRIDIDNRSRTLKLEVQC (disulfide 1-20 (inferred)) [SySA-64] | 0.70% | > 256 µg/mL | > 256 µg/mL | 
23 | CRIRIDVNNGSGRLKLQLEC (disulfide 1-20 (inferred)) [SySA-21] | 0.42% | > 256 µg/mL | > 256 µg/mL | 
24 | CLTVRLDNRGRGLKISVEVC (disulfide 1-20 (inferred)) [SySA-60] | 0.53% | > 256 µg/mL | > 256 µg/mL | 
25 | CVTIRVDNRGSRLKISVQVC (disulfide 1-20 (inferred)) [SySA-33] | 0.26% | > 256 µg/mL | > 256 µg/mL | 
26 | CRVKINVNNRGRTLKLELEC (disulfide 1-20 (inferred)) [SySA-58] | 0.000315% | > 256 µg/mL | > 256 µg/mL | 
27 | CVTVRVNNRGGRLKVSVEVC (disulfide 1-20 (inferred)) [SySA-56] | 0.19% | > 256 µg/mL | > 256 µg/mL | 
28 | CLRIRVDNRGSGVKVTLEVC (disulfide 1-20 (inferred)) [SySA-57] | 0.25% | > 256 µg/mL | > 256 µg/mL | 
29 | CLTVRVNNRRSGVRVSVQVC (disulfide 1-20 (inferred)) [SySA-43] | 0.11% | > 256 µg/mL | > 256 µg/mL | 
30 | CVTVRVNNRGRGLRISLQVC (disulfide 1-20 (inferred)) [SySA-47] | 0.48% | > 256 µg/mL | > 256 µg/mL | 
31 | CLTVRVNNRGSGVKVSLEVC (disulfide 1-20 (inferred)) [SySA-54] | 1.51% | > 256 µg/mL | > 256 µg/mL | 
32 | CRIRIDVNNRSGTLKLQVQC (disulfide 1-20 (inferred)) [SySA-36] | -0.0122% | > 256 µg/mL | > 256 µg/mL | 
33 | CLTIRVNNRRGRVRISVQVC (disulfide 1-20 (inferred)) [SySA-15] | 0.80% | > 256 µg/mL | > 256 µg/mL | 
34 | CRIRINIDNRSGTVRLEVQC (disulfide 1-20 (inferred)) [SySA-3] | 0.24% | > 256 µg/mL | > 256 µg/mL | 
35 | CRIRINVNNRGRTLKLEVQC (disulfide 1-20 (inferred)) [SySA-10] | 0.40% | > 256 µg/mL | > 256 µg/mL | 
36 | CRVKVNINNGSRRLRLQVQC (disulfide 1-20 (inferred)) [SySA-50] | 0.34% | > 256 µg/mL | > 256 µg/mL | 
37 | CLRIRLNNRRSRVRISVEVC (disulfide 1-20 (inferred)) [SySA-52] | 9.99% | > 256 µg/mL | > 256 µg/mL | 
